Measurements published in patent publication US20230158057A1, “COMPOSITIONS AND METHODS FOR THE TREATMENT OF PAIN” (Duke University, priority 2020, published 2023).

Assays:
[1] = system: RAW 264.7 cells; assay: In vitro osteoclastogenesis, RANKL-treated RAW 264.7 cells, TRAP staining; format: cell-based, mouse; conditions: RANKL 35 ng/ml, 6 days, escalating dose
Protocol: In vitro induction of osteoclastogenesis and TRAP staining. For in vitro drug treatment, the RAW 264.7 cells were incubated with 35 ng/ml RANKL for six days. Isolated bone marrow cells were cultured overnight in α-MEM media containing 10% fetal bovine serum and 1% antibiotic-antimycotic solution. The suspended cells were collected and incubated with 20 ng/ml MCSF for 3 days to obtain bone marrow-derived macrophage (BMDM). The attached cells were further activated by 35 ng/ml RANKL and 20 ng/ml MCSF. Drug treatment was performed in tandem with RANKL. Culture medium and co-cultured reagents were changed every 3 days. After 6 or 7 days of incubation, the cells were fixed by 4% PFA and stained with warm TRAP staining solution (TRAP kit, Sigma-Aldrich, SLBW4002) for 10-30 min at 37° C.

[2] = system: female C57BL/6 mice with intrafemoral E0771 breast carcinoma; assay: E0771 breast cancer-induced bone cancer pain model; format: in vivo, mouse; conditions: for bone destruction scored from X-ray images: E0771-bearing femora; for body weight / mechanical allodynia, cold allodynia and spontaneous pain: E0771 model
Protocol: Bone cancer pain model. The murine cell lines LLC1, LL/2-Luc2 or E0771 were lightly digested using 0.05% trypsin, followed by centrifugation to remove poorly digested cell clusters. Cells were then resuspended in PBS at a concentration of 1×10^8 cells/ml. The inoculation was performed as previously described (Wang, K. et al. “PD-1 blockade inhibits osteoclast formation and murine bone cancer pain.” The Journal of clinical investigation, (2020); Wang, Z. et al. “Anti-PD-1 treatment impairs opioid antinociception in rodents and nonhuman primates.” Sci Transl Med 12 (2020)). Briefly, mice were anesthetized with 4% isoflurane and the left leg was shaved and the skin disinfected with 10% povidone-iodine and 75% ethanol. A superficial incision (0.5-1 cm) was made near the knee joint, exposing the patellar ligament. A new 25-gauge needle was inserted at the site of the intercondylar notch of the left femur into the femoral cavity, which was then replaced with a 10 μL microinjection syringe containing a 2 μL suspension of tumor cells (2×10^5) followed by 2 μL absorbable gelatin sponge solution to seal the injection site. The syringe contents were slowly injected into the femoral cavity over a 2-minute interval. To prevent further leakage of tumor cells outside of the bone cavity, the outer injection site was sealed with silicone adhesive (Kwik-Sil, World Precision Instruments, US). Animals with surgery related movement dysfunction or with outside bone tumor injection were excluded from the study.
Behavior tests. All the behavioral tests were conducted in a blinded manner and performed during between the hours of 9:00-16:00. Animals were habituated in a light and humidity controlled testing environment for at least 2 days prior to baseline testing. For Von Frey testing, mice were confined to individual 5×5 cm boxes placed on an elevated wire grid. A blinded experimenter stimulated their hindpaws using a series of von Frey filaments with logarithmically increasing stiffness (0.02-2.56 g, Stoelting). Each filament was applied perpendicularly to the central plantar surface. The 50% paw withdrawal threshold was determined using Dixon's up-down method. In addition, we also measured paw withdrawal frequency to repeated stimulation (10 times, with ˜1-2 minutes between each stimulation) using a subthreshold 0.16 g von Frey filament, which is a more sensitive method to detect mechanical allodynia. To measure cold allodynia, mice were similarly isolated to individual boxes on an elevated mesh floor, and a drop (˜20-30 μl) of acetone was applied to the plantar hindpaw. […] To measure locomotor function, we performed open field testing in which mice were placed in the center of a 45×45 cm chamber and locomotor activity was recorded by an overhead webcam connected to a laptop computer, and animals' movements were automatically tracked for 30 minutes using ANY-Maze. The total distance traveled and mean speed during the 30-minute period were analyzed.
In vivo X-ray radiography. Osteolytic bone destruction was continuously evaluated by radiography using the MultiFocus by Faxitron system (Faxitron Bioptics LLC, Tucson, Ariz.). Radiographs of tumor-bearing femora were rated for bone destruction on a 0-5 score scale based on previous study: 0 for normal bone at baseline without tumor inoculation; 1 for one to three radiolucent lesions indicative of bone destruction compared to baseline; 2 for increased number of lesions (three to six lesions) and loss of medullary bone; 3 for loss of medullary bone and erosion of cortical bone; 4 for full-thickness unicortical bone loss; 5 for full-thickness bicortical bone loss and displaced skeletal fracture. All radiographic image quantifications were completed by an experimenter who was blinded to the experimental conditions.
STING agonist treatment protects against breast cancer induced bone pain and bone destruction. […]

[3] = system: naïve mice; assay: Conditioned place preference (CPP) assay in naïve mice; conditions: i.t., morphine 2 nmol, DMXAA or ADU-S100 35 nmol
Protocol: All mice underwent 3 d of preconditioning habituation in a temperature- and humidity-controlled room under low-light conditions between 08:00-16:00 in a two compartment CPP chamber (Med Associates Inc.). The two compartments differed by both visual and tactile cues. On the 4th day, animal behavior was video-recorded using a webcam connected to a laptop computer, and animal movement was automatically tracked for 15 minutes using the ANY-Maze software (Stoelting). […] On the conditioning day(s) (day 5 for single trial; day 5-7 for repeated trials), two pairing sessions were performed, with vehicle pairing in the AM session and drug treatment (e.g., vehicle or drug) in the PM session, separated by 4 h. In the AM session, mice always received vehicle (10 μl saline, delivered via i.t. injection under isoflurane anesthesia) and were immediately placed in their preferred CPP chamber for 2 h. […] 24 h after the completion of the pairing experiments, mice were placed in the CPP test box with access to both chambers and behavior was recorded for 15 minutes and analyzed using the ANY-Maze software for chamber preference. CPP score was calculated as the inverse of the time spent in the preferred chamber according to: [post-preference (sec)—pre-preference (sec)]. Vehicle served as a negative control for these experiments, while morphine (three trials/naïve mice) or clonidine (single trial/ongoing pain) served as positive controls.

[4] = system: naïve mice; assay: Naloxone reversal of antinociception; format: in vivo, mouse; conditions: naloxone 10 mg/kg i.p.; morphine 2 nmol i.t., DMXAA or ADU-S100 35 nmol i.t.
Protocol: Following naloxone delivery, mice were tested within 15 minutes. For the experiments testing whether mice developed tolerance to the effects of STING agonists, vehicle or DMXAA (35 nmol) were administered via i.t. injection. Naïve mice received five single injections at D0, D3, D6, D9, and D12, with testing each day 4 h after injection. SNI mice received injections on two consecutive days beginning on D7 (D7 and D8) and every 48 h afterwards following the conclusion of sensory testing (D10, D12, D14, D16, and D18). Spinal cords (L4-L5) were collected for analysis of glial cell activation at D21 following SNI.

SMILES	osteoclast differentiation [1]	bone destruction scored from X-ray images [2]	body weight [2]	mechanical allodynia, cold allodynia and spontaneous pain [2]	conditioned place preference, repeated pairing [3]	effect of naloxone on the antinociception of the substance [4]
Nc1ncnc2c1ncn2[C@@H]1O[C@@H]2COP(=O)([S-])O[C@@H]3[C@H](O)[C@@H](COP([O-])(=S)O[C@H]2[C@H]1O)O[C@H]3n1cnc2c(N)ncnc21.[Na+].[Na+] (stereo partly drawn) [ADU-S100, (2′-5′)-[P(R)]-5′-O-[(R)-hydroxymercaptophosphinyl]-P-thioadenylyl-adenosine cyclic dinucleotide]	dose dependently inhibited osteoclast differentiation	could also attenuate bone destruction	had no effect on body weight	could markedly reduce mechanical allodynia, cold allodynia and spontaneous pain	neither DMXAA nor ADU-S100 could induce place preference	had no effect
Cc1ccc2c(=O)c3cccc(CC(=O)O)c3oc2c1C [DMXAA, 2-(5,6-dimethyl-9-oxo-9H-xanthen-4-yl)acetic acid]	dose dependently inhibited osteoclast differentiation	could also attenuate bone destruction	had no effect on body weight	could markedly reduce mechanical allodynia, cold allodynia and spontaneous pain	neither DMXAA nor ADU-S100 could induce place preference	had no effect
